Assay results: patent US5514704A, “Benzothiophenes to inhibit leukotrienes” (Eli Lilly and Company, priority 1995, dated 1996)

How the values were obtained:
cPLA2 [1] = target: T1, cPLA2 (Homo sapiens, UniProt P47712); test: cPLA2 Enzymatic Activity Assay, 14C-PC/DG liposome substrate; format: biochemical
T1 sequence (P47712 1-749): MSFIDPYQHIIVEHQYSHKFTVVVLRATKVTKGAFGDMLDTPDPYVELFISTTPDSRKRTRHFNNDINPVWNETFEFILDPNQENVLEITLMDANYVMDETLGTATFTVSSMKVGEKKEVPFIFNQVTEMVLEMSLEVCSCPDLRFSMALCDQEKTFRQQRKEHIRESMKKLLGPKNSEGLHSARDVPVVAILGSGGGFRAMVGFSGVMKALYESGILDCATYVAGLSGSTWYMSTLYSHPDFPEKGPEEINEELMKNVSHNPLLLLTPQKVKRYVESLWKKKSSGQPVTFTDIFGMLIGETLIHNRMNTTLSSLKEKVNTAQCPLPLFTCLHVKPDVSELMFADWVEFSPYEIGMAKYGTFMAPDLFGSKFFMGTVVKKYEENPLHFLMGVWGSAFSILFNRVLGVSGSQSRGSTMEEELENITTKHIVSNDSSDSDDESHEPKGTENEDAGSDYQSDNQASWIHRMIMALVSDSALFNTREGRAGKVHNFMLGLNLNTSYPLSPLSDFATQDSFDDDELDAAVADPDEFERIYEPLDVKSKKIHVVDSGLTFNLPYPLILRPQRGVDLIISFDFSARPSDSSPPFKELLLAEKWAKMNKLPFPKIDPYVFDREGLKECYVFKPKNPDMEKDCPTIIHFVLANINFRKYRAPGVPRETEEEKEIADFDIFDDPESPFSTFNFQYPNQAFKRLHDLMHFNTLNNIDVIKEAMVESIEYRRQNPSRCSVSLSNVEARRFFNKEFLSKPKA
Description: (§1) The substrate, sonicated liposomes containing 1-palmitoyl-2 ^14 C!arachidonoyl-sn-glycerol-3-phosphocholine ( ^14 C!PC, 55 mCi/mmol from NEN Research Products) and sn-1,2-dioleoylglycerol (DG, Avanti Polar Lipids, Birmingham, Ala.) at a molar ratio of 2:1, are prepared as follows. ^14 C!PC (20 nmol, 1×10^6 dpm, 50 uCi/ml in toluene/ethanol) and DG (10 nmol, 100 ug/ml in chloroform) are dried under nitrogen. The lipids are dispersed in 1 ml of 150 mM NaC1, 50 mM Hepes, pH 7.5 (assay buffer) by sonication at 4° C., with Microson probe-sonicator (Heat Systems Ultrasonics) for 4×15 seconds, with 45 second intervals. Bovine serum albumin (essentially fatty acid free, from a 100 mg/ml stock in water, Sigma) is added to a final concentration of 4 mg/ml. Samples to be assayed for cPLA2 activity are incubated with 50 ul liposomes (0.5 nmol ^14 C!PC, 50,000 dpm containing 0.25 nmol of DG) in a total volume of 0.2 ml of assay buffer containing 1 mM CaCl2 and 1 mM 2-ME. Incubations are carried out at 37° C. for 15 minutes and terminated by adding 2 ml of Dole's reagent (2-propanol/heptane/0.5M sulfuric acid, 40:10:1 containing 10 ug/ml of stearic acid). After mixing, 1.2 ml of heptane and 1 ml of water are added. The mixtures are briefly vortexed and the upper phase transferred to tubes containing 2 ml of heptane and 150 mg of Bio-Sil (Bio-Rad Laboratories) activated at 130° C. before use. The tubes are thoroughly vortexed and centrifuged (1000×g for 5 minutes). The supernatants are decanted into scintillation vials. After addition of 10 ml of a liquid scintillation cocktail (Ready Protein+, Beckman) radioactivity is counted using a Beckman liquid scintillation counter Model LS 7000. High radioactive counts correlate with enzymatic activity. The chromogenic cPLA2 enzyme assay used is analogous to Reynolds et al., Analytical Biochemistry, 217, 25-32 (1194).
(§2) (The results are in IC50 μM). (Compound A is a compound of formula II where R6 and R7 are hydrogen, and R5 is phenyl. Compound B is a compound of formula I where R1, R2 and R3 are hydrogen. Compound C is a compound of formula II wherein R6 and R7 are methyl, and R5 is p-methoxyphenyl. Compound D is a compound of formula II wherein R1 and R2 are hydrogen, and R5 is p-hydroxyphenyl.)

[2] = MCII mast cell toxicity assay (XTT); format: cell-based; settings: mouse, mcii mast cells, 4-12 hours, 37° C., read-out: MCII Mast Cell Toxicity (IC50)
From the text: This toxicity assay is run in parallel with the MCII mast cell LTC4 assay and serves as an indicator of compound effects on the viability and metabolic activity of the MCII cells. This "toxicity" assay is based on the ability of dehydrogenase enzymes present in viable metabolically active cells to bioreduce the tetrazolium salt XTT yielding a colored, water soluble formazan product. (see, Roehm et al.) "An improved colorimetric assay for cell proliferation and viability utilzing the tetrazolium salt XTT. J. Immunol. Methods […] (1991).
A duplicate polystyrene 96-well tissue culture plate (Costar) is set up with sensitized MCII cells, EM95 ascites, media and dilutions of the test compound as described above. The complete media is supplemented with concanavalin A induced culture supernatants from the mouse helper T cell clone D10.G4, as a source of mast cell growth factors.
Wells of the toxicity assay plate are pulsed with 25 μl XTT (Sigma) plus phenazine methosulfate (Aldrich) giving a final concentration of 0.2 mg/ml XTT and 25 μM phenazine methosulfate. The plates are incubated at 37° C. in 10% CO2 for 4-12 hours and then production of the XTT formazan product determined by measuring the optical density of the wells at a wavelength of 450 nm. The positive control on each plate is stimulated MCII cells with dimethyl sulfoxide vehicle alone and the negative control is the same reaction mixture without cells. The background negative control value is subtracted from experimental and positive control values and the data are reported as percent of positive control.
as §2

[3] = tested on: thromboxane B2 (TxB2) production, human plasma-depleted blood; test: Inhibition of TxB2 production by plasma-depleted blood; format: cell-based; settings: read-out: Plasma DPLTD Blood TxB2 (IC50)
Description: Compounds are evaluated for their ability to inhibit production of leukotriene B4 (LTB4) and thromboxane B2 (TxB2) upon stimulation of human plasma-depleted blood with formyl-methionyl-leucyl-phenylalanine (FMLP) and thrombin. LTB4 is produced by neutrophils and TxB2 by platelets stimulated at their respective receptors with FMLP and thrombin. The assay is carried out in 1 ml deep well polypropylene 96-well plates (Beckman). For the tests ten ml of blood is collected in EDTA at a final concentration of 1.5 mg/ml. Then, 40 ml glucose phosphate buffer containing 0.1% gelatin is added and the suspension centrifuged at 900 g for 10 minutes at room temperature. The supernatant is discarded and the cells washed once with 50 ml buffer before resuspending them in 50 ml Krebs-Ringers-Henseleit Buffer containing 0.1% gelatin, 1 mM CaCl2, 1.1 mM MgCl2 (KRH buffer). Working solutions of test compounds are made by dissolving the material in DMSO at 10 mM and diluting with appropriate amounts of KRH buffer. An agonist solution is made containing 1 μM FMLP (sigma) and 10 units/ml of thrombin in KRH buffer (Enzyme Research Labs). […] The amount of LTB4 and TxB2 produced is determined by the use of a competitive enzyme immunoassay using commercial reagents from Cayman Chemical. […]

cPLA2 [4] = target: T1, cPLA2; test: cPLA2 enzyme assay, chromogenic; format: biochemical
Description: as §1, with “The mixtures are briefly vortexed and the upper phase transferred to tubes containing 2 ml of heptane and 150 mg of Bio-Sil (Bio-Rad Laboratories) activated at 130° C. before use. The tubes are thoroughly vortexed and centrifuged (1000×g for 5 minutes). The supernatants are decanted into scintillation vials.” left out, “High radioactive counts correlate with enzymatic activity. The chromogenic cPLA2 enzyme assay used is analogous to Reynolds et al., Analytical Biochemistry, 217, 25-32 (1194).” left out

5-lipoxygenase = target: T2, 5-lipoxygenase (Homo sapiens, UniProt P09917); test: 5-Lipoxygenase (5-LPO) Assay: inhibition of leukotriene B4 formation by human neutrophil 20,000×g supernatant; format: biochemical
T2 construct: The resultant supernatant containing the cytosolic 5-lipoxygenase activity is stored frozen; from tissue; host or cells: peripheral blood neutrophils, 20,000×g supernatant of sonicate
T2 sequence (P09917 1-674): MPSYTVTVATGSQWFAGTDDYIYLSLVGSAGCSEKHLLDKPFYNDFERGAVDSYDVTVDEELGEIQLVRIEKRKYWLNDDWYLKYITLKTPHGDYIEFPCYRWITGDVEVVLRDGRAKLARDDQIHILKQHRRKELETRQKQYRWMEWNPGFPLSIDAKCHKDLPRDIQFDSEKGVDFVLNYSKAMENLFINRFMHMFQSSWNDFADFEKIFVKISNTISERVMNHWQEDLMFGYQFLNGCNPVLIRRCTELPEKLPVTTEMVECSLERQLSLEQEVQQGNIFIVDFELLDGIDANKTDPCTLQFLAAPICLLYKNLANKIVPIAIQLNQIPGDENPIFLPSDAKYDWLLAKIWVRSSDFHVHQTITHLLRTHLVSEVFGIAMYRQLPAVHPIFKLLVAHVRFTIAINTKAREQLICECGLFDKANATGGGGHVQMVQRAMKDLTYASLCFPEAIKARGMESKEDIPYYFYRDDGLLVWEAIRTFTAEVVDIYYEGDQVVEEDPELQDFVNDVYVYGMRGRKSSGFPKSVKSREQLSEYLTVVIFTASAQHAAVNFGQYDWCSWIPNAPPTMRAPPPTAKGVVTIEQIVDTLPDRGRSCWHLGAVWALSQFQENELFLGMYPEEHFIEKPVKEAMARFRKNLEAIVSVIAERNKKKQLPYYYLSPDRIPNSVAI
Description: To determine the effect of compounds on 5-lipoxygenase activity, peripheral blood neutrophils are separated by density centrifugation as described (Marder et al., Prostaglandins Leukot. and Essent. Fatty Acids 46, 265-270, 1992) and the cytosolic 5-lipoxygenase is prepared from isolated neutrophils according to a modification of Carter et al., (J. Pharmacolo Exp. Thero 256, 929-937 (1991)). Briefly, neutrophils are washed twice in buffer (in millimolar: PIPES, 10; BES, 10; and EDTA, 1; pH 6.8) and diluted to 2.5×10^7 cells/ml. Cells are disrupted with sonication and the cytosolic fraction obtained by centrifugation at 20,000×g for 20 min. at 4° C. The resultant supernatant containing the cytosolic 5-lipoxygenase activity is stored frozen at -70° C. prior to use. Compounds are evaluated for 5-lipoxygenase inhibitory activity. Varying concentration of compounds in 200 ml aliquots containing 50 ml of human 20,000×g supernatant in assay buffer (in millimolar: PIPES, 10; BES, 10; EDTA, 1; NaCl, 100; ATP, 1.56; and CaCl2, 2.5; pH 6.8) containing 3.0 mM AA are used. The reaction proceeds for 5 minutes at 37° C. and is terminated upon the addition of 50 ml EDTA (250 mM). The percent inhibition of leukotriene B4 is determined for each concentration of test compound as compared to vehicle (containing no compound) control. The concentration representing 50% inhibition (IC50) is determined by standard mathematical techniques. Leukotriene B4 is determined by EIA. EIA reagents were purchased from Caymen Chemical Co. (Ann Arbor, Mich.) and used according to the assay procedures as outlined therein.

SMILES | IC50 (cPLA2 [1]; 14C-PC/DG liposomes, 37° C., 15 min, pH 7.5, read-out: C-PLA2 Enzyme, C14PC/DA6 (IC50)) | CC50 [2] | IC50 [3] | IC50 (cPLA2 [1]) | IC50 (cPLA2 [4]) | IC50 (5-lipoxygenase)
O=C(c1ccccc1)c1c(-c2ccc(O)cc2)sc2cc(O)ccc12 [Compound A] | 7.3 ± 0.5 µM | 0.3 µM |  |  |  | 
O=C(c1ccc(O)cc1)c1c(-c2ccc(O)cc2)sc2cc(O)ccc12 [Compound D] |  |  | > 9.8 µM |  |  | 
O=C(c1ccc2ccccc2c1)c1c(-c2ccc(O)cc2)sc2cc(O)ccc12 [Example 3, 6-hydroxyphenyl-2-(p-hydroxyphenyl)-(benzo(B)thien-3-yl)(β-napthyl)methanone] |  | > 10 µM |  | 2.3 ± 0.6 µM | 122 µM | 1 ± 0.5 µM
O=C(c1cccc2ccccc12)c1c(-c2ccc(O)cc2)sc2cc(O)ccc12 [Example 2, 6-hydroxyphenyl-2-(p-hydroxyphenyl)-(benzo(B)thien-3-yl)(α-napthyl)methanone] |  | > 10 µM |  | 4.8 ± 1.6 µM |  | 1.7 ± 0.9 µM
O=C(c1ccc(-c2ccccc2)cc1)c1c(-c2ccc(O)cc2)sc2cc(O)ccc12 [Example 1, 6-hydroxyphenyl-2-(p-hydroxyphenyl)-(benzo(B)thien-3-yl)(p-phenyl)phenyl methanone] |  | > 10 µM |  | < 1.2 µM | 146 µM | 
Oc1ccc(-c2cc3ccc(O)cc3s2)cc1 [Compound B] |  | < 10 µM |  | 7 ± 0.8 µM |  | 0.2 ± 0.007 µM
